The values below come from patent publication US20220235043A1, “SUBSTITUTED SULFONAMIDE PYRROLOPYRIDINES AS JAK INHIBITORS” (ACLARIS THERAPEUTICS, INC., priority 2019, published 2022).

Structures are written as SMILES.

The target of one assay is T1, JAK1 (Homo sapiens, UniProt P23458).
T1 construct: purchased Thermo Fisher Scientific (SelectScreen service)
The assay is described as follows: JAK1 enzyme activity assay (Thermo Fisher Selectscreen, Z-lyte). It is filed as biochemical. Particulars: read-out: JAK1 Inhibition IC50. The essentials:
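Z-lyte FRET kinase assay with 21.2-91.5 ng JAK1 and 2 μM Tyr 06 peptide in 50 mM HEPES pH 7.0, 10 mM MgCl2, 1 h reaction before development reagent. Background without enzyme, uninhibited signal with 2% DMSO vehicle; 11-point dose-response, IC50 from 4-parameter logistic fit of emission ratio.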

Another assay deals with T2, JAK2 (Homo sapiens, UniProt O60674).
T2 construct: purchased Thermo Fisher Scientific (SelectScreen service)
The assay can be described thus: JAK2 enzyme activity assay (Thermo Fisher Selectscreen, Z-lyte). It is filed as biochemical. As to conditions: read-out: JAK2 Inhibition IC50. The essentials: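 Z-lyte FRET kinase format: 0.12-0.5 ng JAK2 with 2 μM Tyr 06 peptide in HEPES pH 7.5, 10 mM MgCl2, 1 h reaction, then development reagent. Compounds were run as 11-point dose-response, 2% DMSO vehicle. IC50 came from 4-parameter logistic fit of emission ratio.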

A further assay deals with T3, JAK3 (a.a. 781-1124) (Homo sapiens, UniProt P52333).
T3 construct: JAK3 (a.a. 781-1124, ThermoFisher); purchased ThermoFisher
The assay is described as follows: JAK3 enzyme activity assay (SRCtide phosphorylation, Caliper). It is filed as biochemical. Particulars: 1 uM ATP; read-out: JAK3 Inhibition IC50. The method, boiled down:
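Kinase reactions used 2.5 nM JAK3 (aa 781-1124), 1 μM FAM-SRCtide and 1 uM ATP in HEPES pH 7.5, MgCl2, BSA, Tween-20, 2% DMSO. Incubation was 40 min at room temperature, stopped with EDTA. Phospho/unphospho peptide separated by Caliper mobility shift; IC50 from 11-point 3-fold 4-parameter fits.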

The next assay deals with T4, Tyk-2 (Homo sapiens, UniProt P29597).
T4 construct: purchased Thermo Fisher Scientific (SelectScreen service)
The assay is described as follows: Tyk-2 enzyme activity assay (Thermo Fisher Selectscreen, Z-lyte). As to conditions: read-out: Tyk-2 Inhibition IC50. Type of assay: biochemical. The method, boiled down:
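Z-lyte FRET assay with 3.75-15 ng TYK2 and 2 μM Tyr 03 peptide in 50 mM HEPES pH 7.0, 10 mM MgCl2, 1 mM EGTA, 0.01% BRIJ-35. Reaction ran one hour before development reagent was added. Compounds were tested in an 11-point dose-response; IC50 came from a 4-parameter logistic fit of emission ratio, normalised to no-enzyme and 2% DMSO vehicle controls.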

Assay [1] has as its system IL-2 stimulated STAT5 phosphorylation on Tyr694 (JAK1/3). The assay can be described thus: JAK1/3 cellular target modulation: IL-2 stimulated phospho-STAT5 in human PBMC. Type of assay: cell-based. Particulars: IL-2 25 ng/ml, read-out: IL2-STAT5 IC50. The essentials:
(§1)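 Thawed human PBMC (200,000/well) preincubated with compound 1 h at 37°C, then stimulated with IL-12 1.7 ng/ml for 25 min, IFNγ 10 ng/ml for 10 min, or IL-2 25 ng/ml for 5 min. Lysate phospho-STAT4 Tyr693 and phospho-STAT5 Tyr694 read by MSD; phospho-STAT1 Tyr701 by sandwich ELISA.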

Assay [2] concerns IFNγ stimulated STAT1 phosphorylation on Tyr701 (JAK1/2). The assay can be described thus: JAK1/2 cellular target modulation: IFNγ stimulated phospho-STAT1 in human PBMC. Type of assay: cell-based. As to conditions: IFNγ 10 ng/ml, read-out: Infγ-STAT1 IC50. The essentials: as §1
Assay [3] has as its system IL-12 stimulated STAT4 phosphorylation on Tyr693 (JAK2/TYK2). The assay is described as follows: JAK2/TYK2 cellular target modulation: IL-12 stimulated phospho-STAT4 in human PBMC. Type of assay: cell-based. As to conditions: IL-12 1.7 ng/ml, read-out: IL12-STAT4 IC50. The essentials:
as §1

T2 sequence (O60674 whole entry): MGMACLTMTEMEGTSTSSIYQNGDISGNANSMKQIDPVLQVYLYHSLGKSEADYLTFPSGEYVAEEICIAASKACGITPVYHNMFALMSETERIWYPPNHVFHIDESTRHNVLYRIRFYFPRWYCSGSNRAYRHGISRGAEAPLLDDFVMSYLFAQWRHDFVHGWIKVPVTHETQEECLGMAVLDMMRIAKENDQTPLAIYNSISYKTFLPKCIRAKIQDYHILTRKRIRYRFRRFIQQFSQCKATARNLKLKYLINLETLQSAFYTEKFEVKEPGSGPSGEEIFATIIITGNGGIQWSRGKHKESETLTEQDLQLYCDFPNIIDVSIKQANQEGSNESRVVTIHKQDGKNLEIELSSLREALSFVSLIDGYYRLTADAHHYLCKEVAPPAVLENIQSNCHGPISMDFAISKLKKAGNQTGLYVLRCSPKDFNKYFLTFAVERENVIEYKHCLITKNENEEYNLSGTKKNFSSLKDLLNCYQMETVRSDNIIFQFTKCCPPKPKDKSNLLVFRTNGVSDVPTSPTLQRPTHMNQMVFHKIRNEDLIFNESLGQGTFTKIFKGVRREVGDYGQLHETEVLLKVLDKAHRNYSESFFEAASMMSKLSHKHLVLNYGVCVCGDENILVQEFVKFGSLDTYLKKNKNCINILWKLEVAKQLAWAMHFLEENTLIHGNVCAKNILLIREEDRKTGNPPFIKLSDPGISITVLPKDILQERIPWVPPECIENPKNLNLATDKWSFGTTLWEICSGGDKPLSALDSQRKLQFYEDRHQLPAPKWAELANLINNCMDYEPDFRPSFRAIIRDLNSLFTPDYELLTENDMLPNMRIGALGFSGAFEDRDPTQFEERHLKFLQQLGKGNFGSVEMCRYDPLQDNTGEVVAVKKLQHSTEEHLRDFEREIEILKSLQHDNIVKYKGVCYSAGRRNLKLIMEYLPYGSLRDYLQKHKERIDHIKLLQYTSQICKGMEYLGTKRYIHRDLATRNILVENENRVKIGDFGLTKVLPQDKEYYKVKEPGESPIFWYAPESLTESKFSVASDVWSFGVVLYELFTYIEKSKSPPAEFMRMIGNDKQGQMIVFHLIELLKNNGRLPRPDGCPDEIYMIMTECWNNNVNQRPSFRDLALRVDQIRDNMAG
T4 sequence (P29597 whole entry): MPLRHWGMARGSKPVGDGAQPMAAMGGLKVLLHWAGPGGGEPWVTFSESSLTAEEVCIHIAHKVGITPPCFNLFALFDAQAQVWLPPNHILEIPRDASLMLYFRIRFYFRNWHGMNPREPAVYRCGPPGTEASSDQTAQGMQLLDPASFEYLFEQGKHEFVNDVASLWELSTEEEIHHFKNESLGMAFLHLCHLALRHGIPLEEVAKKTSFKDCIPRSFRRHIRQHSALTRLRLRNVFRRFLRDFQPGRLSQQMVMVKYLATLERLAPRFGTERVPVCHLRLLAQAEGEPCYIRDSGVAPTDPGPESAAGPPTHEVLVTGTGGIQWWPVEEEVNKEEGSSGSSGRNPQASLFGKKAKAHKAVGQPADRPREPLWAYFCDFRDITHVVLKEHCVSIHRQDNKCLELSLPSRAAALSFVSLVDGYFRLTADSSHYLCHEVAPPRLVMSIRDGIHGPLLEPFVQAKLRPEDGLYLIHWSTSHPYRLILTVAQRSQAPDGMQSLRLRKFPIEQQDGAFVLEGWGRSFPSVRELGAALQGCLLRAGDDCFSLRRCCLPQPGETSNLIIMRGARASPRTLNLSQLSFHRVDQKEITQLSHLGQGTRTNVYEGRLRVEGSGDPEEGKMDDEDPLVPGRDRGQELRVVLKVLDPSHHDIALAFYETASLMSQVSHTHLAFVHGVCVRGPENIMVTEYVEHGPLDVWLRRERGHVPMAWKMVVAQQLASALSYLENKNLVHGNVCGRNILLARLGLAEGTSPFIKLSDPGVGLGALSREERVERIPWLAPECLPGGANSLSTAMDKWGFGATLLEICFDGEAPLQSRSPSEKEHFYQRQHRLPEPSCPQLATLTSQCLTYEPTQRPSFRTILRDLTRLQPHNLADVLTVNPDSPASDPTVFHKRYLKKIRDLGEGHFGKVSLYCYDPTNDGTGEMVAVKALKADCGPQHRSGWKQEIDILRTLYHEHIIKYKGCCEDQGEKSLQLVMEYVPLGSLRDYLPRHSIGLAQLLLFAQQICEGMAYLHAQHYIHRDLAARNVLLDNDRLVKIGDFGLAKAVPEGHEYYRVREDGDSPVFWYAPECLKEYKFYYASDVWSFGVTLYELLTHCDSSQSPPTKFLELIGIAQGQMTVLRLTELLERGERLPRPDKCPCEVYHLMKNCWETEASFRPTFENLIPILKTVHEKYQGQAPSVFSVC
T3 sequence (P52333 781-1124): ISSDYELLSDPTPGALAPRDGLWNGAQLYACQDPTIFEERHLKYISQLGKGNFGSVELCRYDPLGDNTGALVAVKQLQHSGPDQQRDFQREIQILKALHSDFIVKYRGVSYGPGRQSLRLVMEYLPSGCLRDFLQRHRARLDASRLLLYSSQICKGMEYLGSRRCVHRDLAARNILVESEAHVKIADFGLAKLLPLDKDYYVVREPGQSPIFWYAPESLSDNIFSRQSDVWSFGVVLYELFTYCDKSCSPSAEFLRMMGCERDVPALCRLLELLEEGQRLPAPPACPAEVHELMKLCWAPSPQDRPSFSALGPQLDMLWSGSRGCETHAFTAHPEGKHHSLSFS
T1 sequence (P23458 whole entry): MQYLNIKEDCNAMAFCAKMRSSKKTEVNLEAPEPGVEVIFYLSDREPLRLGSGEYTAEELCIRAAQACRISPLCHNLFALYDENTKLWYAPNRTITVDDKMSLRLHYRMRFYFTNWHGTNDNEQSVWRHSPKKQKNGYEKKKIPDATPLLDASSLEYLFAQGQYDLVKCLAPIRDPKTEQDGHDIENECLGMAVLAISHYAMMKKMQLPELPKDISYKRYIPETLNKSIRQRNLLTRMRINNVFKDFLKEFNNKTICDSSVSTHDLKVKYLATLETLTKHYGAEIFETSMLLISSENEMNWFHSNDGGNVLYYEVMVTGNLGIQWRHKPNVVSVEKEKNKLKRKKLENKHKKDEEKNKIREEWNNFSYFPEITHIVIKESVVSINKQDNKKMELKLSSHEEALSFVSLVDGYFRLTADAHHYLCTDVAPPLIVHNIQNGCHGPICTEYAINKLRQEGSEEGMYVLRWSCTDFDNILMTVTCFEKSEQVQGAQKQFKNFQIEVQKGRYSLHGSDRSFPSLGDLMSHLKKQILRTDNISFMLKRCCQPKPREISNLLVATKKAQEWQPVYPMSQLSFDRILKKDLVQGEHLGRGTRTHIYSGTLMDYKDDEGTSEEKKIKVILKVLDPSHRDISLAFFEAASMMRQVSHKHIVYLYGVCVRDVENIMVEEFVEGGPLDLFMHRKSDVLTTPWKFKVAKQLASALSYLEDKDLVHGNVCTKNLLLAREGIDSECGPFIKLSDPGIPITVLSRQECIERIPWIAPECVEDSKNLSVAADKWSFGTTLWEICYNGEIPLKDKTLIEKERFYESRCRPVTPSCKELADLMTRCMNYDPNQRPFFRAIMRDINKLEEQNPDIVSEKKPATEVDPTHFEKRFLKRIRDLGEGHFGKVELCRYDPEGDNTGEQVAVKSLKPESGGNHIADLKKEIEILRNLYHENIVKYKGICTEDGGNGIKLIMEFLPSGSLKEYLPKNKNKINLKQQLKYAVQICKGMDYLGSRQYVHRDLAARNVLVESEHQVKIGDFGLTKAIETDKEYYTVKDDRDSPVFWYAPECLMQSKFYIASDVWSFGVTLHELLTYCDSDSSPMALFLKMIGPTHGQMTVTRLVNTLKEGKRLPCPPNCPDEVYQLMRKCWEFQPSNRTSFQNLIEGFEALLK

A word on the IC50: it is the concentration that gives 50% inhibition. With `N#Cc1ccnc(S(=O)(=O)N[C@H]2C[C@H](Nc3c(-c4ccncn4)cnc4[nH]ccc34)C2)c1` [Example 63, 4-cyano-N-((1r,3r)-3-((5-(pyrimidin-4-yl)-1H-pyrrolo[2,3-b]pyridin-4-yl)amino)cyclobutyl)pyridine-2-sulfonamide], the IC50 is at most 0.01 µM at JAK1; at most 0.01 µM at JAK2; 0.01 to 0.1 µM at JAK3 (a.a. 781-1124); 0.01 to 0.1 µM on Tyk-2; 0.1 to 1 µM in assay [1]; 0.1 to 1 µM in assay [2]. The concentration for half-maximal inhibition (IC50) in assay [3] is over 1 µM.
